# Active and inactive are the calls of the source. No cut-off for these calls is given here.
# Experiments:
# MDA-MB-231 [1] = assay: Antiproliferative activity against human MDA-MB-231 cells assessed as reduction in cell viability incubated for 2 days by CCK8 assay; assay type: functional, cell-based; details: MDA-MB-231, 48 h
# MDA-MB-231 [2] = assay: Induction of apoptosis in human MDA-MB-231 cells assessed as increase in cleaved PARP level by immunoblot analysis; assay type: functional, cell-based
# MDA-MB-468 [3] = assay: Antiproliferative activity against human MDA-MB-468 cells assessed as reduction in cell viability incubated for 2 days in presence of JQ1 by CCK8 assay; assay type: functional, cell-based; details: MDA-MB-468, 48 h
# MDA-MB-231 [4] = assay: Antiproliferative activity against human MDA-MB-231 cells assessed as reduction in cell viability incubated for 2 days in presence of JQ1 by CCK8 assay; assay type: functional, cell-based; details: MDA-MB-231, 48 h
# MDA-MB-231 [5] = assay: Induction of apoptosis in human MDA-MB-231 cells assessed as increase in cleaved caspase-7 level by immunoblot analysis; assay type: functional, cell-based
# DCAF11-BRD4 = DCAF11-BRD4 (Homo sapiens, UniProt O60885+Q8TEB1); assay: PROTAC activity at DCAF11/BRD4 in human MDA-MB-231 cells assessed as induction of BRD4 degradation at 10 uM incubated for 12 hrs by immunoblot analysis; assay type: cell-based
# Chain of DCAF11-BRD4 (Q8TEB1 whole entry, looked up, other chains not shown): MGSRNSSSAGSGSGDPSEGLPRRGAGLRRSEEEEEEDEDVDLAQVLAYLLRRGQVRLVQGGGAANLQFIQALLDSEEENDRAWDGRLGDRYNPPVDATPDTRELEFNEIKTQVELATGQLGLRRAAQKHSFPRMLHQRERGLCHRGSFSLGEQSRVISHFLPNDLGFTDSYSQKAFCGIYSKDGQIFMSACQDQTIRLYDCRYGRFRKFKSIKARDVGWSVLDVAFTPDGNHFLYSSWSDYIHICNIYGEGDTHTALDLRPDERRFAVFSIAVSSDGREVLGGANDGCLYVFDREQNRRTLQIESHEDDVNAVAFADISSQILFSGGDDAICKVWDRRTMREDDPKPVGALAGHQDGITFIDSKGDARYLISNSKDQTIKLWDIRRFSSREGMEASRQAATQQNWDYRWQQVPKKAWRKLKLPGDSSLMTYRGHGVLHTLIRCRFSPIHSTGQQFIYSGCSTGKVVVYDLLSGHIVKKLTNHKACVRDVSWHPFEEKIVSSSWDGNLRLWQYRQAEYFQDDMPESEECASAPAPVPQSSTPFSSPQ
# MDA-MB-468 [6] = assay: Antiproliferative activity against human MDA-MB-468 cells assessed as reduction in cell viability incubated for 2 days by CCK8 assay; assay type: functional, cell-based; details: MDA-MB-468, 48 h
# MDA-MB-231 [7] = assay: Antiproliferative activity against human MDA-MB-231 cells assessed as reduction in cell viability incubated for 2 days in presence of tert-butyl 2-(4-methyl-2-((2-oxo-6-(trifluoromethyl)indolin-3-ylidene)methyl)phenoxy)acetate by CCK8 assay; assay type: functional, cell-based; details: MDA-MB-231, 48 h
# MDA-MB-231 [8] = assay: Induction of BRD4 degradation in human MDA-MB-231 cells at 10 uM incubated for 12 hrs by immunoblot analysis; assay type: cell-based
# MDA-MB-468 [9] = assay: Antiproliferative activity against human MDA-MB-468 cells assessed as reduction in cell viability incubated for 2 days in presence of tert-butyl 2-(4-methyl-2-((2-oxo-6-(trifluoromethyl)indolin-3-ylidene)methyl)phenoxy)acetate by CCK8 assay; assay type: functional, cell-based; details: MDA-MB-468, 48 h
SMILES,IC50 (MDA-MB-231 [1]) [µM],Activity (MDA-MB-231 [2]),IC50 (MDA-MB-468 [3]) [µM],IC50 (MDA-MB-231 [4]) [µM],Activity (MDA-MB-231 [5]),Activity (DCAF11-BRD4),IC50 (MDA-MB-468 [6]) [µM],IC50 (MDA-MB-231 [7]) [µM],Activity (MDA-MB-231 [8]),IC50 (MDA-MB-468 [9]) [µM]
Cc1ccc(OCC(=O)OC(C)(C)C)c(/C=C2\C(=O)Nc3cc(C(F)(F)F)ccc32)c1,11.4,inactive,10,3.71,inactive,inactive,26.6,,,
Cc1sc2c(c1C)C(c1ccc(Cl)cc1)=N[C@@H](CC(=O)O)c1nnc(C)n1-2,5.13,inactive,,,inactive,,25.9,3.71,inactive,10

# Reference: ChEMBL document CHEMBL6078642, “Design, Synthesis, and Activity Evaluation of BRD4 PROTAC Based on Alkenyl Oxindole-DCAF11 Pair” (J Med Chem, 2024)
